Assay results reported in ChEMBL document CHEMBL3286217, “Structure-based efforts to optimize a non-β-lactam inhibitor of AmpC β-lactamase” (Bioorg Med Chem, 2014).
pKi: −log10 of the molar value.

How the values were obtained:
[1] = Inhibition of beta-lactamase AmpC (unknown origin) by UV-Vis spectrophotometry
[2] = Competitive inhibition of beta-lactamase AmpC (unknown origin) by Lineweaver-Burk plot analysis
[3] = Reversible competitive inhibition of beta-lactamase AmpC (unknown origin)

| pKi [1] | Compound | also measured |
| --- | --- | --- |
| 5.77 | O=C(O)c1ccc(NS(=O)(=O)c2ccsc2C(=O)O)cc1 | – |
| 4.24 | Cc1ccc(CNS(=O)(=O)c2ccsc2C(=O)O)cc1 | – |
| 3.95 | O=C(O)c1sccc1S(=O)(=O)NCc1ccc(Cl)cc1 | – |
| 4.74 | O=C(O)c1ccc(CNS(=O)(=O)c2ccsc2C(=O)O)cc1 | – |
| – | O=C(O)c1ccc(CCNS(=O)(=O)c2ccsc2C(=O)O)cc1 | pKi [2]: 4.59 |
| 4.72 | O=C(O)c1ccc(CCCNS(=O)(=O)c2ccsc2C(=O)O)cc1 | – |
| – | O=C(O)c1sccc1S(=O)(=O)Nc1ccc(Cl)cc1 | pKi [3]: 4.59 |
